Format in all cases: organism-based
Data set [1] deals with Homo sapiens. Kind of data set: Toxicity in sphenoid sinus human patient assessed as occurrence of superficial edema treatment increased upto 300 mg, po QID by biopsy hostopathological analysis. Conditions: in vivo.
In data set [2] the test system is Homo sapiens. Kind of data set: Toxicity in sphenoid sinus human patient assessed as occurrence of cutaneous reaction with red striae treatment increased upto 300 mg, po QID by biopsy hostopathological analysis. Conditions: in vivo.
The test system of data set [3] is Homo sapiens. Kind of data set: Toxicity in sphenoid sinus human patient assessed as recurrence of the cutaneous reaction treatment increased upto 500 mg, iv BID for 8 weeks. Conditions: in vivo, 1344 h.
In data set [4] the test system is Homo sapiens. Kind of data set: Toxicity in sphenoid sinus human patient assessed as apoptotic or necrotizing keratinocytes treatment increased upto 300 mg, po QID. Particulars: in vivo.
Data set [5] relates to Homo sapiens. The data set is described as follows: Toxicity in sphenoid sinus human patient assessed as mild elevations in liver enzyme level treatment increased upto 500 mg, iv BID for 8 weeks. Particulars: in vivo, 1344 h.
The test system of data set [6] is Homo sapiens. The data set is described as follows: Toxicity in sphenoid sinus human patient assessed as increase in liver enzyme level treatment increased upto 300 mg, iv QID for 8 weeks measured after 2 weeks of treatment discontinuation. Conditions: in vivo.
For data set [7], the system named is Homo sapiens. Kind of data set: Toxicity in sphenoid sinus human patient assessed as desensitization to several types of adverse reactions at 500 mg, iv BID after 8 weeks. Particulars: in vivo, 1344 h.
The subject of data set [8] is Homo sapiens. The data set is described as follows: Toxicity in sphenoid sinus human patient assessed as inflammatory infiltration treatment increased upto 300 mg, po QID by biopsy hostopathological analysis. Conditions: in vivo.
Data set [9] has as its system Homo sapiens. Kind of data set: Toxicity in sphenoid sinus human patient assessed as occurrence of extended interface dermatitis with vacuolar alteration of the basilar epidermis treatment increased upto 300 mg, po QID by biopsy hostopathological analysis. Particulars: in vivo.
Data set [10] deals with Homo sapiens. The data set is described as follows: Toxicity in sphenoid sinus human patient assessed as cutaneous reaction treatment increased upto 300 mg, iv QID for 8 weeks measured after 2 weeks of treatment discontinuation. Conditions: in vivo.
Data set [11] relates to Homo sapiens. The data set is described as follows: Toxicity in sphenoid sinus human patient assessed as occurrence of epidermolysis bullosa acquisita treatment increased upto 300 mg, po QID by biopsy hostopathological analysis. Conditions: in vivo.
The test system of data set [12] is Homo sapiens. The data set is described as follows: Toxicity in sphenoid sinus human patient assessed as increase in liver enzyme level treatment increased upto 300 mg, iv QID relative to control. Particulars: in vivo.
In data set [13] the test system is Homo sapiens. The data set is described as follows: Toxicity in sphenoid sinus human patient assessed as occurrence of pseudoporphyria treatment increased upto 300 mg, po QID by biopsy hostopathological analysis. Particulars: in vivo.
The test system of data set [14] is Homo sapiens. The data set is described as follows: Toxicity in sphenoid sinus human patient assessed as occurrence of erythema multiforme treatment increased upto 300 mg, po QID by biopsy hostopathological analysis. Particulars: in vivo.

As to `C[C@@H](c1ncncc1F)[C@](O)(Cn1cncn1)c1ccc(F)cc1F` [VORICONAZOLE], the Activity entry is recorded as “Toxic” in the data set with Homo sapiens [1]; “Toxic” in the data set on Homo sapiens [2]; “Non-toxic” in the data set with Homo sapiens [3]; “Non-toxic” in the data set with Homo sapiens [4]; “Toxic” in the data set on Homo sapiens [5]; “Non-toxic” with Homo sapiens [6]. Besides, the Activity entry is listed as “Non-toxic” in the data set on Homo sapiens [7]; “Non-toxic” in the data set with Homo sapiens [8]; “Toxic” in the data set with Homo sapiens [9]; “Non-toxic” with Homo sapiens [10]; “Toxic” in the data set with Homo sapiens [11]; “Toxic” with Homo sapiens [12]. The Activity result in the data set with Homo sapiens [13] and in the data set with Homo sapiens [14] was “Toxic” throughout.
